One assay relates to TmrA^EQB. The experiment in a line: Nucleotide occlusion, catalytically reduced variant. Format: biochemical, Thermus thermophilus. To be noted: CP^F 4 µM; 5 min 45°C. As for the experimental part: Figure 5. […] (A, B) CP6^F (A) or CP13^F (B, 50 nM each) were incubated with increasing concentrations of detergent-solubilized inward-facing TmrAB (in the absence of Mg-ATP) or outward-facing TmrA^EQB, which was trapped with Mg-ATP (1 mM) for 5 min at 45°C as described ([Hofmann et al., 2019]; [Stefan et al., 2020]). Immediately after, the fluorescence anisotropy was assayed at λex/em = 485/520 nm. The difference in fluorescence polarization was normalized to free and fully bound CP^F. Data were fitted by a one-site binding model. […] TmrAB (2 µM each) were mixed with CP^Fs (4 µM), ATP (1 mM, traced with [α^32P]-ATP), and MgCl2 (5 mM) for 5 min at 4°C or 45°C. Cold ATP (10 mM) was added, and freely exchangeable nucleotides were removed by rapid gel filtration. Occluded nucleotides were analyzed by thin layer chromatography and autoradiography. Representative radiograms for independent triplicates are shown. (D) Stably occluded nucleotides, [α^32P]-ATP and [α^32P]-ADP, were quantified by autoradiography. Data were normalized to the vanadate-trapped state. In (A, B, D), mean values ± SD (n = 3) are shown. Figure 5—source data 1. Source Data for Figure 5. Figure 5—figure supplement 1. […] (A) CP^Fs (50 nM each) were incubated with increasing concentrations of detergent-solubilized IF TmrAB in the inward-facing (IF) conformation (absence of Mg-ATP) or TmrA^EQB populated in the outward-facing (OF) conformation, which was trapped in the OF conformation by Mg-ATP (1 mM) after 5 min incubation at 45°C. The difference in fluorescence polarization was normalized to unbound (0%) and 100% bound CP^F. Data were fitted by a one-site binding model. Fluorescence anisotropy was recorded at λex/em = 485/520 nm. […] TmrA^EQB (2 µM) were incubated in the absence and presence of CP^Fs (4 µM each), ATP (1 mM, traced with [α^32P]-ATP), and MgCl2 (5 mM) for 5 min at 4°C or 45°C. Cold ATP (10 mM) was added, and free nucleotides were removed by rapid gel filtration. Occluded nucleotides were analyzed by thin layer chromatography and autoradiography. Representative radiograms for independent triplicates are shown. […] Figure 5—figure supplement 1—source data 1.
We also examined the impact of CP^Fs on the IF-to-OF transition of wild-type TmrAB induced by ATP binding through nucleotide occlusion (stable trapping) as the readout. We induced the IF-to-OF switch with radiotraced [α^32P]-ATP for 5 min at 45°C in the presence and absence of CPs and removed unbound nucleotides by rapid gel filtration. Subsequently, the occluded nucleotides were identified and quantified by thin layer chromatography and autoradiography (Figure 5C, D).
Detergent-solubilized TmrAB (2 µM) were incubated with ATP (1 mM) traced with [α^32P]-ATP (Hartmann Analytic), MgCl2 (5 mM), CP^Fs (4 µM), or orthovanadate (1 mM) for 5 min at 45°C. […]

A further assay has as its system TmrAB. The experiment in a line: ATP binding by scintillation proximity assay (SPA). Also on record: species or system Thermus thermophilus. To be noted: CP^B 1 µM; for Effect on ATP binding to TmrAB: SPA; for Signal, ATP binding: TmrAB 0.2 µM on SPA beads, ATP 3 µM traced with 3H-ATP, 30 min on ice, without CP 5.06; for Signal, Background: after release of TmrAB from beads with imidazole 200 mM. From the text:
To elucidate the mechanistic basis for the inhibition of ATP hydrolysis and substrate transport, we investigated the effects of CPs on substrate binding. In the first approach, fluorescent CP^Fs were used as reporters in fluorescence polarization. […] In addition, we examined the impact of CP^Bs on ATP binding to TmrAB by scintillation proximity assays (SPA) (Figure 4C). […] Taken together, CPs are high-affinity allosteric inhibitors of TmrAB that leave ATP binding and substrate interaction largely unaffected, while impairing ATP hydrolysis and substrate translocation across the membrane.
Figure 4. […] (A) CP^Fs binding TmrAB is not affected by substrate peptide binding. […] For competition, C4^ATTO655 peptide (2 µM) or R9LQK peptide (200 µM) were added. (B) Binding of C4F peptide is not affected by CP^Bs. C4F peptides (50 nM) were mixed with TmrAB (4 µM), and fluorescence anisotropy was monitored as described in (A). For competition, C4^ATTO655 (10 µM) or CP^Bs (6 µM) were added. […] TmrAB (0.2 µM) were immobilized on SPA beads and incubated with ATP (3 μM, traced with ^3H-ATP) in the presence and absence of CP^Bs (1 µM each) for 30 min on ice. ATP binding was monitored by SPA. Background values were determined after releasing TmrAB complexes from the beads by adding imidazole (200 mM). The background signal in the absence of CP^Bs was set to 0 cpm. […] As this is an equilibrium experiment, this can be rationalized by the fact that CP13 stabilizes the ATP-bound OF conformer. Figure 4—source data 1. Source data for Figure 4.
DDM-solubilized TmrAB (0.2 µM) was incubated with ATP (2.8 μM), [2,5’,8-^3H(N)]-ATP (0.2 µM, ^3H-ATP, PerkinElmer), MgCl2 (3 mM), and CP^Bs (1 µM) for 30 min on ice. Copper-chelated SPA beads (PerkinElmer) were added to a final concentration of 5 mg/ml. Total binding was determined at 20°C in cpm mode (Wallac MicroBeta). Bound TmrAB complexes were eluted by adding 200 mM of imidazole, and background binding was determined. Data represent mean ± SD from three experiments.
On the technique in general: SPA uses beads or plates that emit light when radiolabelled molecules are held near them.

Structures are written as SMILES. Positions of bridges follow the written chain, without caps; N, C: chain ends. Non-standard residues stand in square brackets, D forms with d. Residues, ends and D or L forms follow the SMILES beside them. *: point of attachment. 5FAM = O=C1OC2(c3ccc(O)cc3Oc3cc(O)ccc32)c2ccc(C(=O)*)cc21; βAla = NCCC(=O)O

These results are taken from PMC8116058, “De novo macrocyclic peptides dissect energy coupling of a heterodimeric ABC transporter by multimode allosteric inhibition” (eLife, 2021).

In the case of `CC[C@H](C)[C@@H]1NC(=O)[C@H]([C@@H](C)O)NC(=O)[C@H](CC(C)C)NC(=O)[C@H](Cc2c[nH]c3ccccc23)NC(=O)[C@H](Cc2ccccc2)NC(=O)[C@H](CC(N)=O)NC(=O)[C@H](CCC(=O)O)NC(=O)[C@H](CC(C)C)NC(=O)[C@H](CS)NC(=O)[C@H](Cc2c[nH]cn2)NC(=O)[C@H](CO)NC(=O)[C@@H](Cc2ccc(O)cc2)NC(=O)CSC[C@@H](C(=O)NCC(=O)N[C@@H](CO)C(=O)NCCC(=O)NCCC(=O)N[C@@H](CCCNC(=N)N)C(=O)N[C@@H](CCCCNC(=O)c2ccc3c(c2)C(=O)OC32c3ccc(O)cc3Oc3cc(O)ccc32)C(N)=O)NC(=O)[C@H](CC(C)C)NC1=O` [CP6] ({CH2CO}-[dY]SHCLENFWLTILCGS[βAla][βAla]RK(5FAM)-NH2; thioether N-14), the “Effect on ATP occlusion, TmrA^EQB” value in the assay on TmrA^EQB is recorded as “inhibited ATP occlusion”. In addition, in the assay with TmrAB, the “Effect on ATP binding to TmrAB” value is given as “only minor effects on ATP binding”; the “Signal, ATP binding” value is 4.22 cpm*10^3; the “Signal, Background” value is -0.04 cpm*10^3.
Take `CC(C)C[C@@H]1NC(=O)[C@H](Cc2ccccc2)NC(=O)CNC(=O)[C@H](CO)NC(=O)[C@H](Cc2ccccc2)NC(=O)[C@H](CC(=O)O)NC(=O)[C@@H]2CCCN2C(=O)[C@H]([C@@H](C)O)NC(=O)[C@@H](Cc2ccc(O)cc2)NC(=O)CSC[C@@H](C(=O)NCC(=O)N[C@@H](CO)C(=O)NCCC(=O)NCCC(=O)N[C@@H](CCCNC(=N)N)C(=O)N[C@@H](CCCCNC(=O)c2ccc3c(c2)C(=O)OC32c3ccc(O)cc3Oc3cc(O)ccc32)C(N)=O)NC(=O)[C@H](C)NC(=O)[C@H](CC(N)=O)NC(=O)[C@H](CCCNC(=N)N)NC(=O)[C@H](CC(C)C)NC(=O)[C@H](Cc2ccccc2)NC(=O)[C@H](C)NC1=O` [CP12] ({CH2CO}-[dY]TPDFSGFLAFLRNACGS[βAla][βAla]RK(5FAM)-NH2; thioether N-16): the “Effect on ATP occlusion, TmrA^EQB” value in the assay with TmrA^EQB is given as “inhibited ATP occlusion”. For the same compound, in the assay with TmrAB, the “Effect on ATP binding to TmrAB” value was “no effect on ATP binding”; the “Signal, ATP binding” value is 5.02 cpm*10^3; the “Signal, Background” value stood at 0.08 cpm*10^3.
As for `CC[C@H](C)[C@@H]1NC(=O)[C@H](Cc2c[nH]c3ccccc23)NC(=O)[C@H](CC(N)=O)NC(=O)[C@H](C)NC(=O)[C@H](CO)NC(=O)[C@@H]2CCCN2C(=O)[C@H](CC(=O)O)NC(=O)[C@@H](Cc2ccc(O)cc2)NC(=O)CSC[C@@H](C(=O)NCC(=O)N[C@@H](CO)C(=O)NCCC(=O)NCCC(=O)N[C@@H](CCCNC(=N)N)C(=O)N[C@@H](CCCCNC(=O)c2ccc3c(c2)C(=O)OC32c3ccc(O)cc3Oc3cc(O)ccc32)C(N)=O)NC(=O)[C@H]([C@@H](C)O)NC(=O)[C@H](CC(C)C)NC(=O)[C@H](CC(C)C)NC(=O)[C@H](C(C)C)NC(=O)[C@H](CC(C)C)NC1=O` [CP13] ({CH2CO}-[dY]DPSANWILVLLTCGS[βAla][βAla]RK(5FAM)-NH2; thioether N-14; C-terminus assumed), in the assay on TmrA^EQB, the “Effect on ATP occlusion, TmrA^EQB” value is “ATP is occluded in the presence or absence”. Also, in the assay on TmrAB, the “Effect on ATP binding to TmrAB” value is “value of bound ATP exceeds the control without CPs”; the “Signal, ATP binding” value is given as 6.33 cpm*10^3; the “Signal, Background” value is on record as 0.19 cpm*10^3. Further, in the assay with TmrAB (listed as CP13^B), the “Effect on ATP binding to TmrAB” value is “only minor effects on ATP binding”.
`CC(C)[C@@H]1NC(=O)[C@H](Cc2ccccc2)NC(=O)[C@@H]2CCCN2C(=O)[C@H](CC(N)=O)NC(=O)[C@H](Cc2c[nH]c3ccccc23)NC(=O)[C@H](C(C)C)NC(=O)[C@H](Cc2ccc(O)cc2)NC(=O)[C@H](Cc2ccccc2)NC(=O)[C@@H](Cc2ccc(O)cc2)NC(=O)CSC[C@@H](C(=O)NCC(=O)N[C@@H](CO)C(=O)NCCC(=O)NCCC(=O)N[C@@H](CCCNC(=N)N)C(=O)N[C@@H](CCCCNC(=O)c2ccc3c(c2)C(=O)OC32c3ccc(O)cc3Oc3cc(O)ccc32)C(N)=O)NC(=O)[C@H](CCCCN)NC(=O)[C@H](Cc2ccccc2)NC1=O` [CP14] ({CH2CO}-[dY]FYVWNPFVFKCGS[βAla][βAla]RK(5FAM)-NH2; thioether N-12; C-terminus assumed): the “Effect on ATP occlusion, TmrA^EQB” value in the assay with TmrA^EQB was “ATP is occluded in the presence or absence”. Further, in the assay on TmrAB, the “Effect on ATP binding to TmrAB” value is reported as “no effect on ATP binding”; the “Signal, ATP binding” value amounted to 5.10 cpm*10^3; the “Signal, Background” value is 0.08 cpm*10^3.
